Laboratory results taken from ChEMBL document CHEMBL3507680, “University of Dundee, Gates Library screen for HepG2 cell viability”.

Experiment: Human HepG2 cell viability assay in 384 well format
Type: toxicity, cell-based
Set-up: dose 125 nL, time 70.5 hour; cytotoxicity at 70.5 h: concentration not given beside the values
Details: HepG2 cells, read-out: Inhibition

Row | Structure (SMILES) | cytotoxicity at 70.5 h
1 | CCC1(CC)Cc2ccccc2-c2nc(NCCO)[nH]c(=O)c21 | -1.26%
2 | Cc1ccnc(OC[C@]23COC[C@H]2CN(C(=O)c2ccnn2C)C3)n1 | -8.86%
3 | CC(C)NC(=O)N1CCCC2(CC(C(=O)Nc3ccccc3)=NO2)C1 (centres undefined) | 16.9%
4 | Cn1cc(CN2CCC(F)(F)C3(CCN(c4cccc(F)c4)C3)C2)cn1 (centres undefined) | 43.6%
5 | CCOCc1ncn2c1CN(C(=O)Nc1ccccc1CC)CC2 | 16.8%
6 | CN1C(Cn2cccn2)C[C@@H]2CN(Cc3nccs3)CC[C@@H]21 (some centres undefined) | -5.16%
7 | CC(C)COCC1CN(Cc2cnn(C)c2)Cc2ncn(C)c21 (centres undefined) | -7.87%
8 | CN(C)CCNC(=O)c1cc(-c2cnc(N(C)C)nc2)cn1CC1CC1 | -6.44%
9 | CCS(=O)(=O)N1C[C@H]2CN(Cc3ccc(OC)cc3)C(=O)[C@H]2C1 | -10.9%
10 | CCS(=O)(=O)N1C[C@H]2CN(Cc3cccc(C)c3)C(=O)[C@H]2C1 | -10.5%
11 | Cc1ccc(N2CC[C@H]3OCC[C@@]3(C(=O)N3CCCO3)C2)nn1 | -4.42%
12 | CC(C)Nc1ncnc2c1CCN(C(=O)[C@H]1CCCO1)CC2 | -6.46%
13 | Cc1ccc(N2CC[C@H](O)[C@@H]2Cc2cnn(C)c2)nn1 | -6.12%
14 | O=C(NCc1ccccc1)N1CCC2(CC(=O)N(c3ccccc3)C2)C1 (centres undefined) | -5.57%
15 | Cc1cc(C(=O)N2CCc3c(CN(C)C)nn(C)c3C2)[nH]n1 | -12.8%
16 | CN(C)Cc1nn(C)c2c1CN(C(=O)c1cccc(C#N)c1)C2 | -11.5%
17 | O=C(Nc1ccccc1)N1CCC2(CC(=O)N(c3ccsc3)C2)C1 (centres undefined) | -10%
18 | N#Cc1cccc(CN2C[C@@H](NC(=O)C3CC3)[C@H]3OCCC[C@H]32)c1 | -12.1%
19 | O=C(c1ccnnc1)N1CCO[C@H]2[C@H](Oc3cccnc3)CC[C@@H]21 | -13.8%
20 | CC1=N[C@@]2(CC[C@@H]3CN(Cc4ccccc4F)C[C@@H]32)C(=O)N1C | -20%
21 | COCC1Cn2nnc(-c3cnn(C)c3)c2CN1Cc1ccc(C)o1 (centres undefined) | -12.2%
22 | O=C(c1ccnnc1)N1C[C@@H](OCc2cccnc2)[C@H]2OCCC[C@H]21 | 27.3%
23 | O=C(c1ccc[nH]1)N1Cc2nccn2CC(COc2cccnc2)C1 (centres undefined) | 18.1%
24 | COc1cc(N2CC[C@@H]3O[C@@H](C(=O)NC(C)C)C[C@@H]32)ncn1 | -8.65%
25 | Cc1ccc(N2CCO[C@H]3CN(C(=O)c4cccc(C)n4)C[C@H]32)nn1 | -9.8%
26 | COCCNC(=O)[C@@H]1C[C@H]2[C@H](CCN2c2cc(OC)ncn2)O1 | -10.5%

Row | Structure (SMILES) | cytotoxicity at 70.5 h
27 | O=C(CC1CC1)N1Cc2nccn2CC(COc2cccnc2)C1 (centres undefined) | -14.7%
28 | COCC(=O)N1Cc2nccn2CC(COc2cccnc2)C1 (centres undefined) | -14.4%
29 | NC(=O)c1ccc2c(c1)nc1n2CCN(Cc2ccccc2)C1 | -15.9%
30 | O=C(Cn1cc(I)cn1)Nc1cccnc1 | -9.49%
31 | CNc1nc2c(s1)C(c1cccc(F)c1F)CC(=O)N2 (centres undefined) | -11.9%
32 | O=C(NCc1ccco1)c1nn(C2CCS(=O)(=O)C2)c2c1CCCC2 (centres undefined) | -10.4%
33 | CC(=O)N1CCN(C(=O)c2cc(-n3cnnn3)ccc2Cl)CC1 | 24.6%
34 | COc1ccccc1C1SCC(=O)Nc2n[nH]cc21 (centres undefined) | 3.24%
35 | COc1ccc(NCc2nc(=O)n(CCC(C)C)[nH]2)cc1 | -14.5%
36 | CNc1nc2c(s1)C(c1c(Cl)cccc1Cl)CC(=O)N2 (centres undefined) | -15.8%
37 | CC(=O)N1CCC2(CC1)C(=O)N(CC1CC1)c1ccccc12 | -11.9%
38 | O=C1CC2(CCN(S(=O)(=O)c3cccs3)C2)CN1c1ccccc1 (centres undefined) | -9.28%
39 | O=C(c1ccno1)N1CCC2(CC1)C(=O)N(CC1CC1)c1ccccc12 | -17.3%
40 | CCOC1COC2(CCN(Cc3ccc4c(c3)OCO4)CC2)C1 (centres undefined) | -9.87%
41 | O=C(O)c1ccc2ccc(N3CCN(CC4CC4)CC3)n2c1 | -9.01%
42 | CC(C)CN1CCC2(CCN(Cc3ccoc3)CC2)C1=O | -12.7%
43 | CN1[C@H](Cn2cccn2)C[C@@H]2CN(C(=O)Cc3cccs3)CC[C@@H]21 | 24.7%
44 | O=C(C1CCOC1)N1CC[C@@H](O)[C@@H]1Cc1ccccc1 (some centres undefined) | -12.1%
45 | CC(C)CN1CCC2(CCN(C(=O)c3ccc(F)cc3)CC2)C1=O | -5.58%
46 | C[C@H]1C(=O)NC[C@H]2CN(Cc3ccccc3)C[C@H]21 | -2.5%
47 | O=C1CC2(CCCCN2C(=O)c2ccsc2)CN1CC1CC1 (centres undefined) | 8.93%
48 | CN(C)CCN1CCCC12CCN(C(=O)c1cnccn1)CC2 | 6.16%
49 | CCC(CO)NC(=O)c1ccc2ccc(N(C)CC3CC3)n2c1 (centres undefined) | 3.39%
50 | COCC1CN(S(C)(=O)=O)Cc2ncn(CC3CC3)c21 (centres undefined) | -6.83%
51 | Cc1occc1C(=O)N1CCc2c(CNS(C)(=O)=O)cncc2C1 | -20.9%
52 | O=C1CC2(CCCNC2)C(=O)N1Cc1ccc(F)cc1 (centres undefined) | -10.9%

Row | Structure (SMILES) | cytotoxicity at 70.5 h
53 | O=C(NCc1ccco1)[C@H]1C[C@@H]2CCN(c3nncs3)C[C@H]2O1 | -9.42%
54 | COCCNC(=O)[C@@H]1C[C@@H]2CCN(c3ncccn3)C[C@H]2O1 | 24.2%
55 | COCCn1cc2c(n1)C(CNCc1cccc(OC)c1)OCC2 (centres undefined) | 20.4%
56 | COCC1CC2(CCN(C(=O)c3occc3C)CC2)CN1C(C)C (centres undefined) | 20.9%
57 | O=C1[C@H]2CN(S(=O)(=O)c3ccccc3)C[C@H]2CN1Cc1cccnc1 | -15.6%
58 | CN(C)c1ncc(-c2cc(C(=O)NCCC#N)n(CC3CC3)c2)cn1 | -12.9%
59 | COCCCNC(=O)c1cc(-c2cnc(N(C)C)nc2)cn1CC1CC1 | -6.95%
60 | c1cncc(CN2C[C@H]3CCC[C@@H](CNc4cnccn4)[C@H]3C2)c1 | -4.05%
61 | O=C1[C@H]2CN(S(=O)(=O)C3CC3)C[C@H]2CN1Cc1cccnc1 | -8.9%
62 | CN(C)C(=O)[C@@H]1CCO[C@@H]2CCN(CCOCc3ccccc3)C[C@H]21 | 20.6%
63 | O=C(NCc1cccnc1)N1CCC2(CC(=O)N(c3ccsc3)C2)C1 (centres undefined) | -6.34%
64 | CC1=N[C@@]2(CC[C@@H]3CN(Cc4ccccc4C)C[C@@H]32)C(=O)N1CC1CC1 | -9.24%
65 | O=C(C1CCCO1)N1CCc2ncnc(NC3CCC3)c2CC1 (centres undefined) | -15.3%
66 | N#Cc1cccc(CN2C[C@H](NC(=O)C3CC3)[C@H]3OCCC[C@H]32)c1 | -14%
67 | CN(C)C(=O)[C@@H]1CC[C@@H]2[C@@H](CCN2Cc2nccs2)O1 | -14.7%
68 | CO[C@H]1CC[C@H]2[C@H]1OCCN2Cc1ccc(F)c(F)c1 | 36.7%
69 | CC(C)N1CCC(c2nc3ccc(-c4ccnn4C)cn3n2)CC1 | 19.8%
70 | Cn1cc(CN2CC[C@@H]3[C@H]2CCC(=O)N3c2ccccc2)cn1 | -8.65%
71 | Cc1nc(CN2CCC3(CCN(c4cnn(C)c4)C3=O)C2)cs1 (centres undefined) | -14.5%
72 | CC(C)CC(=O)N1C[C@@H]2CCN(c3ncccn3)C[C@@H]2C1 | 42.7%
73 | CC(=O)N1[C@H](CN(C)C)C[C@@H]2CN(C(=O)c3cccc(F)c3)CC[C@@H]21 | -14.7%
74 | COCC(=O)NC1CC2(CCN(CCF)CC2)Oc2ccccc21 (centres undefined) | -10.9%
75 | O=C(Cc1cccs1)N1CC[C@H]2[C@@H]1CCC(=O)N2c1cccnc1 | 2.43%
76 | CN1CCC2(CC1)C(=O)N(CC1CC1)c1ccccc12 | -9.7%
77 | COCCN1C[C@@H]2CN(Cc3cccc(C)n3)C[C@@H]2C1=O | -13.6%
78 | Cc1cccc(CN2CCC3(CCN(c4ccccn4)C3)C2=O)c1 (centres undefined) | -11.4%

Row | Structure (SMILES) | cytotoxicity at 70.5 h
79 | COc1cccc(CN2CCC3(CCN(C(=O)[C@H]4CCCO4)CC3)C2)c1 | -4.99%
80 | Cc1ccc(C(=O)N2CCC3(CC2)CC(N2CCOCC2)C3)cc1 | -12.7%
81 | O=C(C1CCCC1)N1CCC2(CC1)COCCN2CC1CC1 | -12.4%
82 | Cc1cccc(CN2C(=O)CCC23CCN(c2ncc(F)cn2)CC3)n1 | -5.55%
83 | Cc1nc(CN2CCC3(CC2)NC(=O)CC3c2ccccc2)cs1 (centres undefined) | -2.14%
84 | COCCN1CCCC12CCN(C(=O)CC1CCCC1)CC2 | 3.49%
85 | O=C1CC2(CCN(CC3CC3)C2)CN1c1cccc(F)c1 (centres undefined) | 6.96%
86 | Cc1cccc(CN2CC3(CCN(Cc4ccoc4)CC3)OCC2=O)n1 | 17.7%
87 | Cn1cc(CN2CCC(F)(F)C3(CCN(c4ccccn4)C3)C2)cn1 (centres undefined) | -14.4%
88 | CC(C)N(C)Cc1cnc2n1CCN(Cc1ccsc1)C2 | -8.42%
89 | Cn1cc(CN2CCC(F)(F)C3(CCN(c4cccnc4)C3)C2)cn1 (centres undefined) | -9.49%
90 | Cc1ccc(CN2CCn3c(CN(C)C(C)C)cnc3C2)s1 | -6.07%
91 | CC(C)N(C)Cc1cnc2n1CCN(Cc1ccc(F)cc1)C2 | -9.32%
92 | COCc1cncc2c1CCN(Cc1cccs1)C2 | 0.63%
93 | COCCN1CCOCC2(CCCN(Cc3cccc(F)c3)C2)C1 (centres undefined) | -5.38%
94 | Cc1cccc(CN2CCC3(CCN(Cc4ccccn4)C3)C2=O)c1 (centres undefined) | 27.9%
95 | CC[C@H]1N(C)CCC[C@]12CCC(=O)N2Cc1ccncc1 | 10.9%
96 | CN1CCN(CCO)C(=O)C12CCN(Cc1ccsc1)CC2 | -8.5%
97 | Cc1ccc(C(=O)N2CCC3(CC2)CCN(CCN(C)C)C3=O)cn1 | -8.77%
98 | Cc1cccc(CN2C(=O)C[C@H]3[C@@H]2CCN3CC2CC2)n1 | -2.5%
99 | Cc1ccc(CN2Cc3nnn(C)c3C(COCCN(C)C)C2)s1 (centres undefined) | -4.13%
100 | Cc1ccc(CN2CC[C@H]3[C@H](CC(Cn4cccn4)N3C)C2)s1 (some centres undefined) | 15.9%
101 | CN1[C@H](Cn2cccn2)C[C@@H]2CN(Cc3cccs3)CC[C@@H]21 | 18.9%
102 | c1ccc(CN2CCC3(CC2)CCN(Cc2cccs2)C3)nc1 | 0.064%
103 | CN1C(Cn2cccn2)C[C@@H]2CN(Cc3cccnc3)CC[C@@H]21 (some centres undefined) | -6.35%
104 | c1ccc(CN2CCc3c(COCc4ccncc4)cncc3C2)nc1 | -4.58%
